| melting point [°C] | Structure (SMILES) |
| --- | --- |
| 191 | CCOc1cc2c(cc1C(F)(F)F)NC(=O)CC(c1cccc(-c3cc(C)ncc3CC)c1)=N2 [Example 152, 4-[3-(5-Ethyl-2-methyl-pyridin-4-yl)-phenyl]-7-ethoxy-8-trifluoromethyl-1,3-dihydro-benzo[b][1,4]diazepin-2-one] |
| 195 | CCc1cc(-c2cccc(C3=Nc4cc(C)c(Cl)cc4NC(=O)C3)c2)ccn1 [Example 153, 8-Chloro-4-[3-(2-ethyl-pyridin-4-yl)-phenyl]-7-methyl-1,3-dihydro-benzo[b][1,4]diazepin-2-one] |
| 208 | CCc1cc(-c2cccc(C3=Nc4ccc(C(F)(F)F)cc4NC(=O)C3)c2)ccn1 [Example 155, 4-[3-(2-Ethyl-pyridin-4-yl)-phenyl]-8-trifluoromethyl-1,3-dihydro benzo[b][1,4]diazepin-2-one] |
| 217 | CCc1cc(-c2cccc(C3=Nc4cc(Cl)c(C(F)(F)F)cc4NC(=O)C3)c2)ccn1 [Example 156, 7-Chloro-4-[3-(2-ethyl-pyridin-4-yl)-phenyl]-8-trifluoromethyl-1,3-dihydro benzo[b][1,4]diazepin-2-one] |
| 216 | CCc1cc(-c2cccc(C3=Nc4cc(Cl)c(Cl)cc4NC(=O)C3)c2)ccn1 [Example 157, 7,8-Dichloro-4-[3-(2-ethyl-pyridin-4-yl)-phenyl]-1,3-dihydro-benzo[b][1,4]diazepin-2-one] |
| 232 | CCc1cc(-c2cccc(C3=Nc4cc(OCC(F)(F)F)c(C(F)(F)F)cc4NC(=O)C3)c2)ccn1 [Example 158, 4-[3-(2-Ethyl-pyridin-4-yl)-phenyl]-7-(2,2,2-trifluoro-ethoxy)-8-trifluoromethyl-1,3-dihydro-benzo[b][1,4]diazepin-2-one] |
| 244 | CCOc1cc2c(cc1C(F)(F)F)NC(=O)CC(c1cccc(-c3ccnc(CC)c3)c1)=N2 [Example 159, 4-[3-(2-Ethyl-pyridin-4-yl)-phenyl]-7-ethoxy-8-trifluoromethyl-1,3-dihydro-benzo[b][1,4]diazepin-2-one] |
| 198 to 199 | Cc1cc2c(cc1Cl)NC(=O)CC(c1cccc(-c3ccc(C4CC4)nc3)c1)=N2 [Example 161, 8-Chloro-4-[3-(6-cyclopropyl-pyridin-3-yl)-phenyl]-7-methyl-1,3-dihydro-benzo[b][1,4]diazepin-2-one] |
| 166 to 169 | CCOc1ccc2c(c1)N=C(c1cccc(-c3cccnc3)c1)CC(=O)N2 [Example 162, 7-Ethoxy-4-(3-pyridin-3-yl-phenyl)-1,3-dihydro-benzo[b][1,4]diazepin-2-one] |
| 180 to 185 | CCOc1ccc2c(c1)N=C(c1cccc(-c3ccncc3)c1)CC(=O)N2 [Example 163, 7-Ethoxy-4-(3-pyridin-4-yl-phenyl)-1,3-dihydro-benzo[b][1,4]diazepin-2-one] |
| 242 | O=C1CC(c2cccc(-c3ccccn3)c2)=Nc2ccc(C#Cc3ccccc3)cc2N1 [Example 164, 8-Phenylethynyl-4-(3-pyridin-2-yl-phenyl)-1,3-dihydro-benzo[b][1,4]diazepin-2-one] |
| 249 | O=C1CC(c2cccc(-c3ccccn3)c2)=Nc2ccc(C#Cc3ccc(F)cc3)cc2N1 [Example 165, 8-(4-Fluoro-phenylethynyl)-4-(3-pyridin-2-yl-phenyl)-1,3-dihydro-benzo[b][1,4]diazepin-2-one] |
| 213 to 214 | O=C1CC(c2cccc(-c3ccc(C4CC4)nc3)c2)=Nc2cc(OCC(F)(F)F)c(C(F)(F)F)cc2N1 [Example 166, 4-[3-(6-Cyclopropyl-pyridin-3-yl)-phenyl]-7-(2,2,2-trifluoro-ethoxy)-8-trifluoromethyl-1,3-dihydro-benzo[b][1,4]diazepin-2-one] |
| 220 to 221 | Cc1cc2c(cc1C(F)(F)F)NC(=O)CC(c1cccc(-c3ccc(C4CC4)nc3)c1)=N2 [Example 167, 4-[3-(6-Cyclopropyl-pyridin-3-yl)-phenyl]-7-methyl-8-trifluoromethyl-1,3-dihydro-benzo[b][1,4]diazepin-2-one] |
| 219 to 224 | COc1ccc(-c2cccc(C3=Nc4cc(C)c(C(F)(F)F)cc4NC(=O)C3)c2)cn1 [Example 168, 4-[3-(6-Methoxy-pyridin-3-yl)-phenyl]-7-methyl-8-trifluoromethyl-1,3-dihydro-benzo[b][1,4]diazepin-2-one] |
| 186 | COc1ccc(-c2cccc(C3=Nc4cc(OCC(F)(F)F)ccc4NC(=O)C3)c2)cn1 [Example 169, 4-[3-(6-Methoxy-pyridin-3-yl)-phenyl]-7-(2,2,2-trifluoro-ethoxy)-1,3-dihydro-benzo[b][1,4]diazepin-2-one] |
| 220 to 225 | COc1ccc(-c2cccc(C3=Nc4cc(OCC(F)(F)F)c(C(F)(F)F)cc4NC(=O)C3)c2)cn1 [Example 170, 4-[3-(6-Methoxy-pyridin-3-yl)-phenyl]-7-(2,2,2-trifluoro-ethoxy)-8-trifluoromethyl-1,3-dihydro-benzo[b][1,4]diazepin-2-one] |
| 228 to 230 | O=C1CC(c2cccc(-c3cccnc3)c2)=Nc2ccc(C#Cc3ccc(F)cc3)cc2N1 [Example 174, 8-(4-Fluoro-phenylethynyl)-4-(3-pyridin-3-yl-phenyl)-1,3-dihydro-benzo[b][1,4]diazepin-2-one] |

| melting point [°C] | Structure (SMILES) |
| --- | --- |
| 241 | O=C1CC(c2cccc(-c3cccnc3)c2)=Nc2ccc(C#Cc3ccccc3)cc2N1 [Example 175, 8-Phenylethynyl-4-(3-pyridin-3-yl-phenyl)-1,3-dihydro-benzo[b][1,4]diazepin-2-one] |
| 178 to 180 | O=C1CC(c2cccc(-c3ccc(C4CC4)nc3)c2)=Nc2cc(OCC(F)(F)F)ccc2N1 [Example 176, 4-[3-(6-Cyclopropyl-pyridin-3-yl)-phenyl]-7-(2,2,2-trifluoro-ethoxy)-1,3-dihydro-benzo[b][1,4]diazepin-2-one] |
| 194 | CC(C)c1ccc(-c2cccc(C3=Nc4ccc(C(F)(F)F)cc4NC(=O)C3)c2)cn1 [Example 177, 4-[3-(6-Isopropyl-pyridin-3-yl)-phenyl]-8-trifluoromethyl-1,3-dihydro-benzo[b][1,4]diazepin-2-one] |
| 197 | CC(C)c1ccc(-c2cccc(C3=Nc4cc(OCC(F)(F)F)c(C(F)(F)F)cc4NC(=O)C3)c2)cn1 [Example 178, 4-[3-(6-Isopropyl-pyridin-3-yl)-phenyl]-7-(2,2,2-trifluoro-ethoxy)-8-trifluoromethyl-1,3-dihydro-benzo[b][1,4]diazepin-2-one] |
| 190 | Cc1cc2c(cc1Cl)NC(=O)CC(c1cccc(-c3ccc(C(C)C)nc3)c1)=N2 [Example 179, 8-Chloro-4-[3-(6-isopropyl-pyridin-3-yl)-phenyl]-7-methyl-1,3-dihydro-benzo[b][1,4]diazepin-2-one] |
| 199 | Cc1cc2c(cc1C(F)(F)F)NC(=O)CC(c1cccc(-c3ccc(C(C)C)nc3)c1)=N2 [Example 180, 4-[3-(6-Isopropyl-pyridin-3-yl)-phenyl]-7-methyl-8-trifluoromethyl-1,3-dihydro-benzo[b][1,4]diazepin-2-one] |
| 210 | CCOc1cc2c(cc1Cl)NC(=O)CC(c1cccc(-c3cccnc3)c1)=N2 [Example 181, 8-Chloro-7-ethoxy-4-(3-pyridin-3-yl-phenyl)-1,3-dihydro-benzo[b][1,4]diazepin-2-one] |
| 185 | CCOc1cc2c(cc1Cl)NC(=O)CC(c1cccc(-c3ccnc(C)c3)c1)=N2 [Example 182, 8-Chloro-7-ethoxy-4-[3-(2-methyl-pyridin-4-yl)-phenyl]-1,3-dihydro-benzo[b][1,4]diazepin-2-one] |
| 226 to 227 | O=C1CC(c2cccc(-c3cccnc3)c2)=Nc2cc(Cl)c(C(F)(F)F)cc2N1 [Example 183, 7-Chloro-4-(3-pyridin-3-yl-phenyl)-8-trifluoromethyl-1,3-dihydro-benzo[b][1,4]diazepin-2-one] |
| 207 | O=C1CC(c2cccc(-c3cccnc3)c2)=Nc2ccc(OC(F)(F)F)cc2N1 [Example 185, 4-(3-Pyridin-3-yl-phenyl)-8-trifluoromethoxy-1,3-dihydro-benzo[b][1,4]diazepin-2-one] |
| 219 to 221 | O=C1CC(c2cccc(-c3cccnc3)c2)=Nc2cc(N3CCCC3)c(C(F)(F)F)cc2N1 [Example 187, 4-(3-Pyridin-3-yl-phenyl)-7-pyrrolidin-1-yl-8-trifluoromethyl-1,3-dihydro-benzo[b][1,4]diazepin-2-one] |
| 198 to 201 | O=C1CC(c2cccc(-c3cccnc3)c2)=Nc2cc(N3CCOCC3)c(C(F)(F)F)cc2N1 [Example 188, 7-Morpholin-4-yl-4-(3-pyridin-3-yl-phenyl)-8-trifluoromethyl-1,3-dihydro-benzo[b][1,4]diazepin-2-one] |
| 182 to 185 | CCc1ccc(-c2cccc(C3=Nc4cc(C)c(Cl)cc4NC(=O)C3)c2)cn1 [Example 189, 8-Chloro-4-[3-(6-ethyl-pyridin-3-yl)-phenyl]-7-methyl-1,3-dihydro-benzo[b][1,4]diazepin-2-one] |
| 218 to 219 | CCOc1cc2c(cc1C(F)(F)F)NC(=O)CC(c1cccc(-c3ccc(CC)nc3)c1)=N2 [Example 190, 7-Ethoxy-4-[3-(6-ethyl-pyridin-3-yl)-phenyl]-8-trifluoromethyl-1,3-dihydro-benzo[b][1,4]diazepin-2-one] |
| 211 | CCc1ccc(-c2cccc(C3=Nc4ccc(C(F)(F)F)cc4NC(=O)C3)c2)cn1 [Example 191, 4-[3-(6-Ethyl-pyridin-3-yl)-phenyl]-8-trifluoromethyl-1,3-dihydro-benzo[b][1,4]diazepin-2-one] |
| 191 | CCc1ccc(-c2cccc(C3=Nc4cc(OCC(F)(F)F)c(C(F)(F)F)cc4NC(=O)C3)c2)cn1 [Example 193, 4-[3-(6-Ethyl-pyridin-3-yl)-phenyl]-7-(2,2,2-trifluoro-ethoxy)-8-trifluoromethyl-1,3-dihydro-benzo[b][1,4]diazepin-2-one] |
| 197 | O=C1CC(c2cccc(-c3cccnc3)c2)=Nc2cc(OCC3CC3)c(C(F)(F)F)cc2N1 [Example 194, 7-Cyclopropylmethoxy-4-(3-pyridin-3-yl-phenyl)-8-trifluoromethyl-1,3-dihydro-benzo[b][1,4]diazepin-2-one] |
